Source: patent publication US12521406B2, “Use of compounds in the treatment of fungal infections” (Basilea Pharmaceutica International AG, Allschwil, priority 2020, dated 2026)

How the values were obtained:
[1] = tested on: Aspergillus spp. or rare molds; test: Phase 2 open-label study in patients with invasive mold infections; format: in vivo, human; details: 12 patients treated
From the text: This is a Phase 2, multicenter, open-label, non-comparative study to evaluate the safety and efficacy of compound 1 for the treatment of IMIs caused by Aspergillus spp. or rare molds (e.g., Scedosporium spp., Fusarium spp., and Mucorales fungi). Patients 18 years of age or older will undergo Screening procedures for up to 5 days, following which eligible patients will participate in the study drug Treatment Period for up to 6 weeks, with a Follow-Up Visit 4 weeks after EOST, and a Follow-Up Phone Call 12 weeks after Day 1 (Day 84). The total duration of a patient's participation in the study will be approximately 12 weeks, inclusive of the follow-up telephone call required on Day 84. Patients who require treatment for longer than 6 weeks can be switched to other licensed antifungal therapy (OLAT) at the discretion of the Investigator and in consultation with the Medical Monitor if the situation allows.
This study will consist of a single treatment arm consisting of a loading dose of 1000 mg compound 1, administered over 3 hours by IV infusion twice daily (BID) within the first 24 hours after initiation of the first infusion. On Days 2 and 3, 600 mg compound 1 will be administered over 3 hours by IV infusion once daily (QD). […]

A. fumigatus = test: PK-PD study in immunocompromised mice infected with 6 strains of A. fumigatus; format: in vivo; details: fungal burden (CEs by qPCR) in lung homogenates at 96 hours; 6 A. fumigatus strains
Description: Pharmacokinetic-pharmacodynamic (PK-PD) studies in immunosuppressed mice with invasive infections caused by A. fumigatus have shown that the area under the concentration-time curve (AUC) divided by the minimal effective concentration (MEC) ratio is the driver of efficacy.
In a pharmacokinetic/pharmacodynamic (PK-PD) study, immunocompromised mice were infected with 6 strains of A. fumigatus, inclusive of wild type, azole-resistant, and echinocandin-resistant strains. Groups of animals were dosed with compound 1 at different dose fractionations. […] The stasis and 1-logarithm drop endpoints were defined as the quantity of A. fumigatus in CEs just prior to compound 1 administration compared to CEs at the endpoint of assessment at 96 hours.

[2] = in vivo
[3] = Phase 1, healthy volunteers
From the text: The duration of the multiple-dose regimens in these studies was 7, 14, and 42 days (6 weeks).
One dose regimen of compound 1 will be evaluated in this study.

[4] = tested on: Fusarium, Aspergillus/Lichtheimia, C. albicans, L. prolificans infection; details: human, in vivo
From the text: Population: A total of 15 patients with life-threatening/serious fungal infections received treatment, with slight modifications. […] Of these patients, 12 have an invasive Fusarium infection, while the remaining patients have Aspergillus/Lichtheimia infection, C. albicans infection, and L. prolificans infection. […] These patients show a broad range of fungal infection sites with sinus, spine, ankle, skin, eye, brain, and disseminated infections all observed. Many of these patients also have an underlying disease/condition, such as AML/ALL/MDS, SC/solid organ transplantation, or trauma.
Updates to Dosing Regimen: Seven patients received IV dosing of compound 1, and six of these seven switched to oral doses. Eight patients received oral doses only. […] Additionally, eight patients received oral compound 1 at 400 mg BID rather than 800 mg QD.

[5] = tested on: Aspergillus spp. clinical isolates; test: 2017 and 2018 surveillance of antifungal activity against Aspergillus clinical isolates (MEC); format: cell-based; details: Aspergillus isolates likely to be found in the clinical patient population
Description: The MEC in […] (MEC90) for Aspergillus isolates likely to be found in the clinical patient population under study is 0.03 μg/mL.

[6] = tested on: Aspergillus fumigatus, Scedosporium prolificans, and Fusarium solani; test: 5-fluorouracil immunosuppressed mice with IMIs; format: in vivo
[7] = molecular target: T1, phosphatidylinositol glycan anchor biosynthesis class W (PIGW) protein (Homo sapiens, UniProt Q7Z7B1); test: Inhibition of PIGW, closest mammalian ortholog of GWT1; format: biochemical; details: closest mammalian ortholog of the fungal GWT1 protein
T1 sequence (Q7Z7B1 1-504): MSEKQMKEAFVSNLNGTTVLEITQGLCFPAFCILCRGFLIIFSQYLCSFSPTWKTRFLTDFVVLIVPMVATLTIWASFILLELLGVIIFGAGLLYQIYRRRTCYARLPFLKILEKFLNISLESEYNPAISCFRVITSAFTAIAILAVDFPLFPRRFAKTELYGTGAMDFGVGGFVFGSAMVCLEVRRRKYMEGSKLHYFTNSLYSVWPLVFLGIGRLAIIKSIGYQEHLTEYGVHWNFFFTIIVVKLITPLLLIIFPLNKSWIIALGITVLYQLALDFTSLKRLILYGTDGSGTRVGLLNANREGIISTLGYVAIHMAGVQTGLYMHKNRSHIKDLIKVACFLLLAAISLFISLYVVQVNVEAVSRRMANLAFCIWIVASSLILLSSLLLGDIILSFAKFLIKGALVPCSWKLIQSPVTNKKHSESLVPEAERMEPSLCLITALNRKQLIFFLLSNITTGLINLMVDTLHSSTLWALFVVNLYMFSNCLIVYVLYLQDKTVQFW
From the text: (§1) Compound 1A inhibits the fungal glycosylphosphatidylinositol (GPI)-anchored wall transfer protein 1 (GWT1) enzyme, a highly conserved inositol acylase that catalyzes an early step in the GPI-anchored biosynthesis pathway. This inhibition has pleiotropic effects on the fungal cell due to inhibition of cell wall mannoprotein localization, which comprises cell wall integrity, biofilm formation, germ tube formation, and fungal growth.

[8] = tested on: Candida spp., Cryptococcus spp., Aspergillus spp., Scedosporium spp., Fusarium spp., and some Mucorales fungi; test: In vitro antifungal activity; format: cell-based
From the text: These rare mold and rare yeast species generally pose no threat to healthy subjects, but can lead to invasive mold infections in immunocompromised individuals.

[9] = molecular target: fungal glycosylphosphatidylinositol (GPI)-anchored wall transfer protein 1 (GWT1) enzyme (Saccharomyces cerevisiae, UniProt P47026); test: Inhibition of fungal GWT1 enzyme; format: biochemical
fungal glycosylphosphatidylinositol (GPI)-anchored wall transfer protein 1 (GWT1) enzyme, sequence (P47026 whole entry): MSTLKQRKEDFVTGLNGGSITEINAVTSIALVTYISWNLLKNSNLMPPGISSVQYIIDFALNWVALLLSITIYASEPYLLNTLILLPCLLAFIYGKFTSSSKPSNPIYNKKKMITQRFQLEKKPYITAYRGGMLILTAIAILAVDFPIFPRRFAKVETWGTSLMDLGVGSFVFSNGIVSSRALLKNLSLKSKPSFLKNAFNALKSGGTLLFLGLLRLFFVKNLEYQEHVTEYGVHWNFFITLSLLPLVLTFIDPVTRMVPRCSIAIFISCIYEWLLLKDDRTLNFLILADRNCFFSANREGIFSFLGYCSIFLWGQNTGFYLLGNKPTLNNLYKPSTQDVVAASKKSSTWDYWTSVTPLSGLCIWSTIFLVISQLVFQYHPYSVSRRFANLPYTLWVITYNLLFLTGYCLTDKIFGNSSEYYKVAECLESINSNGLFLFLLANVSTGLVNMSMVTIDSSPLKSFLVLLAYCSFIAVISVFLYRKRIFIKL
From the text: as §1

Row | Structure (SMILES) | patients with good response (at Day 42 or earlier) [1] | median total drug AUC/MEC which achieved 1-logarithm kill endpoint (A. fumigatus) | median total drug AUC/MEC which achieved stasis endpoint (A. fumigatus) | conversion of prodrug to active moiety compound 1A [2] | tissue distribution [2] | safety and tolerability of the dose regimen [3] | tolerability over extended treatment durations [4] | MEC90 [5] | pulmonary fungal colony counts [6] | survival rates [6] | inhibition of PIGW protein [7] | in vitro antifungal activity ([8]; including azole- and echinocandin-resistant strains) | antifungal activity against clinical isolates of rare mold and rare yeast infections ([8]; rare molds and rare yeasts listed) | inhibition of fungal GWT1 enzyme [9]
1 | Nc1c(-c2cc(Cc3ccc(COc4ccccn4)cc3)no2)ccc[n+]1COP(=O)([O-])O [compound 1] | 8 patients | 5258.2 | 2801.6 | rapidly converted in vivo by phosphatases | wide-tissue distribution, including the eye and central nervous system | safe and well tolerated | generally well tolerated | – | – | – | – | – | – | –
2 | Nc1ncccc1-c1cc(Cc2ccc(COc3ccccn3)cc2)no1 [Compound 1A] | – | – | – | – | – | – | – | 0.03 µg/mL | reduced pulmonary fungal colony counts | statistically significantly improved survival rates | does not inhibit | broad in vitro antifungal activity | antifungal activity against a broad range of clinical isolates | inhibits
